From the NIST ThermoML archive (doi:10.1016/j.jct.2016.07.005)
Numbers after ± are expanded uncertainties.

Assay: refractive index (Na D-line) (dimensionless); xn = mol fraction of the nth substance listed
Conditions: 100 kPa, Liquid, Standard Abbe refractometry

CN1CCC[C@H]1c1cccnc1 [(-)-3-(N-methylpyrrolidino)pyridine] + OCCCO
refractive index
Conditions	x1 = 0.1	x1 = 0.1999	x1 = 0.3	x1 = 0.3994	x1 = 0.5	x1 = 0.6004	x1 = 0.7	x1 = 0.8	x1 = 0.9	x1 = 1
293.15 K	1.45763 ± 0.00052	1.47282 ± 0.0005	1.48522 ± 0.00049	1.49551 ± 0.00047	1.50314 ± 0.00046	1.50913 ± 0.00045	1.51461 ± 0.00043	1.51947 ± 0.00042	1.5228 ± 0.00041	1.52665 ± 0.0004
298.15 K	1.4561 ± 0.00052	1.47118 ± 0.0005	1.4835 ± 0.00049	1.49364 ± 0.00047	1.50131 ± 0.00046	1.50702 ± 0.00045	1.51264 ± 0.00043	1.51729 ± 0.00042	1.52064 ± 0.00041	1.52439 ± 0.0004
303.15 K	1.45463 ± 0.00052	1.46959 ± 0.0005	1.48179 ± 0.00049	1.49178 ± 0.00047	1.49939 ± 0.00046	1.5052 ± 0.00045	1.51056 ± 0.00043	1.51508 ± 0.00042	1.51845 ± 0.00041	1.52214 ± 0.0004
308.15 K	1.45312 ± 0.00052	1.46793 ± 0.0005	1.48 ± 0.00049	1.48991 ± 0.00047	1.49739 ± 0.00046	1.50305 ± 0.00045	1.50843 ± 0.00043	1.51294 ± 0.00042	1.51623 ± 0.00041	1.51988 ± 0.0004
313.15 K	1.45171 ± 0.00052	1.46637 ± 0.0005	1.47831 ± 0.00049	1.48799 ± 0.00047	1.49571 ± 0.00046	1.50113 ± 0.00045	1.50703 ± 0.00043	1.51089 ± 0.00042	1.51476 ± 0.00041	1.5179 ± 0.0004
318.15 K	1.45006 ± 0.00052	1.46458 ± 0.0005	1.4764 ± 0.00049	1.48604 ± 0.00047	1.49341 ± 0.00046	1.49907 ± 0.00045	1.50429 ± 0.00043	1.50872 ± 0.00042	1.51216 ± 0.00041	1.51592 ± 0.0004
323.15 K	1.44849 ± 0.00052	1.46287 ± 0.0005	1.4746 ± 0.00049	1.48415 ± 0.00047	1.49147 ± 0.00046	1.49703 ± 0.00045	1.50221 ± 0.00043	1.5066 ± 0.00042	1.50996 ± 0.00041	1.51373 ± 0.0004

CN1CCC[C@H]1c1cccnc1 [(-)-3-(N-methylpyrrolidino)pyridine] + CCCCO
refractive index
Conditions	x1 = 0.1	x1 = 0.196	x1 = 0.3	x1 = 0.3931	x1 = 0.5	x1 = 0.593	x1 = 0.7	x1 = 0.7931	x1 = 0.9	x1 = 1
293.15 K	1.42126 ± 0.00037	1.44053 ± 0.00037	1.45673 ± 0.00037	1.46978 ± 0.00037	1.48302 ± 0.00038	1.49254 ± 0.00038	1.50289 ± 0.00039	1.51169 ± 0.00039	1.51909 ± 0.0004	1.52665 ± 0.0004
298.15 K	1.41913 ± 0.00037	1.43825 ± 0.00037	1.45448 ± 0.00037	1.46759 ± 0.00037	1.48076 ± 0.00038	1.49031 ± 0.00038	1.50065 ± 0.00039	1.50945 ± 0.00039	1.51685 ± 0.0004	1.52439 ± 0.0004
303.15 K	1.41697 ± 0.00037	1.43598 ± 0.00037	1.45225 ± 0.00037	1.46538 ± 0.00037	1.47856 ± 0.00038	1.48808 ± 0.00038	1.49847 ± 0.00039	1.50721 ± 0.00039	1.51463 ± 0.0004	1.52214 ± 0.0004
308.15 K	1.41481 ± 0.00037	1.43367 ± 0.00037	1.45 ± 0.00037	1.46318 ± 0.00037	1.4763 ± 0.00038	1.48583 ± 0.00038	1.49623 ± 0.00039	1.50495 ± 0.00039	1.51238 ± 0.0004	1.51988 ± 0.0004
313.15 K	1.4127 ± 0.00037	1.43148 ± 0.00037	1.44779 ± 0.00037	1.46096 ± 0.00037	1.47404 ± 0.00038	1.48355 ± 0.00038	1.49404 ± 0.00039	1.5028 ± 0.00039	1.51035 ± 0.0004	1.5179 ± 0.0004
318.15 K	1.41058 ± 0.00037	1.42931 ± 0.00037	1.44562 ± 0.00037	1.45876 ± 0.00037	1.47184 ± 0.00038	1.48131 ± 0.00038	1.49183 ± 0.00039	1.50058 ± 0.00039	1.50823 ± 0.0004	1.51592 ± 0.0004
323.15 K	1.40842 ± 0.00037	1.42705 ± 0.00037	1.44337 ± 0.00037	1.45655 ± 0.00037	1.46958 ± 0.00038	1.47906 ± 0.00038	1.48961 ± 0.00039	1.49837 ± 0.00039	1.50604 ± 0.0004	1.51373 ± 0.0004
